Numbers after ± are expanded uncertainties.
Legend:
[1] = refractive index (Na D-line) (dimensionless); details: 293.15 K; 101.33 kPa; Liquid; Standard Abbe refractometry
[2] = 293.15 K; 101.33 kPa; Liquid; Buoyancy - hydrostatic balance

| refractive index [1] | mass density [2] | Compound |
| --- | --- | --- |
| 1.3616 ± 0.0005 | 790 ± 1 kg/m3 | CCO [ethanol] |
| 1.3276 ± 0.0005 | 792.2 ± 1 kg/m3 | CO [methanol] |
| 1.3328 ± 0.0005 | 998.4 ± 1 kg/m3 | O [water] |

| Compound | refractive index [1] | mass density [2] |
| --- | --- | --- |
| C=CCO [2-propenol] | 1.4119 ± 0.0005 | 854 ± 1 kg/m3 |
